# Measurements taken from US10179800B2, “Crystalline forms of S-[4-(3-fluoro-3-methylbutyryloxy)but-2-ynyl] 6-α,9-α-difluoro-17-α-(furan-2-yl)carbonyloxy-11-β-hydroxy-16-α-methyl-3-oxoandrosta-1,4-diene-17-β-carbothioate” (Sun Pharma Advanced Research Company Limited, priority 2015, dated 2019).
# Assay: Stability of the solid form upon storage
# Format: physicochemical
# Conditions: storage at ambient conditions
structure (smiles),measurement,value
"C[C@@H]1CC2C3C[C@H](F)C4=CC(=O)C=C[C@]4(C)[C@@]3(F)[C@@H](O)C[C@]2(C)[C@@]1(OC(=O)c1ccco1)C(=O)SCC#CCOC(=O)CC(C)(C)F (stereo partly drawn) [amorphous form, S-[4-(3-fluoro-3-methylbutyryloxy)but-2-ynyl]6α,9α-difluoro-17α-(furan-2-yl)carbonyloxy-11β-hydroxy-16α-methyl-3-oxoandrosta-1,4-diene-17β-carbothioate]",stability upon storage,unstable upon storage even at ambient conditions
